Assay results reported in US10988500B2, “Lipid A mimics, methods of preparation, and uses thereof” (Immunovaccine Technologies Inc., priority 2015, dated 2021).

How the values were obtained:
[1] = system: bone marrow dendritic cells of C3H/HeJ (TLR4 mutant) mice; test: Dendritic cell activation (CD40/CD86, flow cytometry), TLR4 mutant cells (Example 13); format: cell-based, mouse; conditions: FIG. 7; for expression of CD40 and CD86 on CD11c positive dendritic cells, versus wild-type: TLR4 mutant dendritic cells, 20 micrograms/millilitre, overnight stimulation; for induction of CD40 and CD86 relative to LPS: TLR mutant mice dendritic cells
Method: (§1) Pathogen-free, female C3H/HeOuJ (wild-type) mice and C3H/HeJ (TLR4 mutant) mice, 6-8 weeks of age were purchased from the Jackson Laboratory (Bar Harbor, Me., USA) and were housed according to institutional guidelines with water and food ad libitum under filter controlled air circulation.
(§2) Dendritic cells were prepared from bone marrow of either wild-type or TLR4 mutant mice as follows. Femurs and tibia bones were isolated from naïve mice and flushed under sterile conditions with phosphate buffered saline. Red blood cells were lysed using ammonium chloride potassium lysing solution. Cells were counted and resuspended in complete RMPI 1640 media containing 10% fetal bovine serum (Hyclone, Nepean, ON, Canada), 1% penicillin-streptomycin (Gibco, Burlington, ON, Canada), 2 millimolar L-glutamine (Gibco), 1% HEPES buffer (Gibco) and […] beta-mercaptoethanol (Sigma-Aldrich, Oakville, ON, Canada) at a concentration of 1.2×10E6 cells/millitre. Cells were cultured in a 6-well plate supplemented with 10 nanograms/milliliter of GM-CSF (Peprotech, Rocky Hill, N.J., USA) for 8 days, additional media was added on day 3 and day 6. On day 7, cells were stimulated with JL-265 or JL-266 prepared in DMSO, or DMSO vehicle control, or poly I:C (Thermo-Fisher), or lipopolysaccharide (LPS; Sigma-Aldrich). Non-adherent cells were collected on day 8 and stained with fluorochrome-conjugated antibodies specific for CD11c (clone), CD40 (clone) or CD86 (Clone). Cells were analyzed by flow cytometry using a FACSCalibur (BD Bioscience, Mississauga ON, Canada) and Win List 3D 7.0 software (Verity Software House, Topsham, Me., USA).
(§3) Results were analysed by gating first on CD11c positive cells (dendritic cell marker), then determining the percent that were double positive for CD40 or CD86.

[2] = system: C3 tumors (HPV16-expressing C3 cells); test: C3 tumor challenge, DepoVax (DPX) vaccine (Example 12); format: in vivo, mouse (C57BL6); conditions: for tumor volume fold smaller than control DepoVax composition (Group 1): Table 2, DepoVax; for Tumor Volume (mm^3): Table 2, Example 12, FP peptide 10 micrograms + lipid A mimic 10 micrograms in DepoVax, s.c. on day 5 after C3 implantation; for tumor volumes compared to control groups: at 40 days, DPX vaccine, FIG. 6
Description: (§4) Pathogen-free, female C57BL6 mice, 6-8 weeks of age were purchased from Charles River Laboratories (St. Constant, Quebec, Canada) and were housed according to institutional guidelines with water and food ad libitum under filter controlled air circulation.
(§5) The C3 tumor cell line used in this study is a well-described mouse model for pre-clinical cervical cancer research. HPV16-expressing C3 cells are derived from B6 mouse embryo cells transformed with the complete HPV16 genome under its own promoter and an activated-ras oncogene. The C3 cell line develops tumors when injected subcutaneously and has been used in cancer challenge studies to examine the efficacy of vaccine administered before or after C3 tumor cell implantation. The C3 cell line was maintained in Iscove Modified Dulbecco's Medium (IMDM; Sigma, St. Louis, Mo.) supplemented with 10% heat-inactivated fetal calf serum (Hyclone), 2 mM 1-glutamine, […] 2-mercaptoethanol, penicillin and streptomycin. Cells were incubated at 37° C./5% CO2.
(§6) The HPV16E7 (H-2Db) peptide 49-67, RAHYNIVTF (SEQ ID NO: 1), containing a CTL epitope was fused to PADRE containing a CD4+ T helper epitope by Polypeptide Group (San Diego, Calif., USA). This peptide is hereafter designated as FP.
(§7) To formulate vaccines described herein, a 10:1 mixture of dioleoyl phosphatidylcholine (DOPC) (120 milligrams/mL) and cholesterol (12 milligrams/mL) was solubilized in tert-butanol. FP antigen was first solubilized in dimethyl sulfoxide, although a water suspension of FP can also be used, and then added to the DOPC/cholesterol/tert-butanol mixture. The lipid A mimics JL-265 and JL-266 were first solubilized in dimethyl sulfoxide. Where indicated, JL-265 or JL-266 were also added to the FP/DOPC/tert-butanol mixture. A dry homogeneous mixture of antigen with or without lipid A mimic was prepared by removing the solvent and water present in the formulation by lyophilization. The dry mixture was then suspended in Incomplete Freund's adjuvant, a mineral oil-based model hydrophobic carrier. This formulation is henceforth referred to as DepoVax (DPX).
(§8) To test the efficacy of these oil-based vaccine formulations, groups of mice (8 mice per group) were implanted subcutaneously in the left flank with 5×10E5 C3 cells suspended in 100 microlitres of HBSS media. Five days later, mice were vaccinated subcutaneously in the right flank with 50 microlitres of vaccine. Mice in Group 1 were vaccinated with FP peptide (10 micrograms) in DPX containing no lipid A mimic. Mice in Group 2 were vaccinated with FP peptide (10 micrograms) in DPX containing JL-265 (10 micrograms). Mice in Group 3 were vaccinated with FP peptide (10 micrograms) in DPX containing JL-266 (10 micrograms). Mice in Group 4 served as a tumor growth control and were vaccinated with saline containing no antigen or lipid A mimic.

[3] = system: bone marrow dendritic cells of C3H/HeOuJ (wild-type) mice; test: Dendritic cell activation (CD40/CD86, flow cytometry), wild-type cells (Example 13); format: cell-based, mouse; conditions: FIG. 7; for expression of CD40 and CD86 on CD11c positive dendritic cells: wild-type dendritic cells, 20 micrograms/millilitre, overnight stimulation; for induction of CD40 and CD86 relative to LPS: wild-type mice dendritic cells
Method: as §1, §2, §3

[4] = system: C3 tumors (HPV16-expressing C3 cells); test: C3 tumor challenge, oil-based (IFA) vaccine (Example 11); format: in vivo, mouse (C57BL6); conditions: at 28 days; FP peptide 10 micrograms in oil (IFA) with 10 micrograms lipid A mimic, FIG. 5
Description: as §4, §5, §6
To formulate the vaccine herein, FP peptide was solubilized in dimethyl sulfoxide and mixed with Incomplete Freund's adjuvant (IFA). […]

[5] = system: C3 tumors (HPV16-expressing C3 cells); test: C3 tumor challenge, aqueous liposome vaccine (Example 10); format: in vivo, mouse (C57BL6); conditions: for Tumor Volume (mm^3): Table 1, Example 10, FP peptide 10 micrograms + lipid A mimic 10 micrograms in liposomes, water carrier, s.c. on day 5 after C3 implantation; for tumor volumes compared to control groups: at 28 days, liposome vaccine, FIG. 4
Description: as §4, §5, §6
To formulate the vaccines herein, 160 micrograms of FP was mixed with a DOPC/cholesterol mixture (10:1, w/w, Lipoid GmbH, Germany) dissolved in tert-butanol. When lipid A mimics were included, 160 micrograms of JL-265 or JL-266 were added to the FP/DOPC/chol mixture. The mixture was lyophilized and then reconstituted in reconstituted in […] of sterile water to formulate liposomes containing antigen with or without lipid A mimic. Each vaccine dose was 50 microlitres and contained 10 micrograms of FP peptide with or without 10 micrograms of lipid A mimic (JL-265 or JL-266).
as §8, with “liposome-based” for “oil-based”, “(7” for “(8”, “liposomes” for “DPX”

[6] = system: antigen-specific IFN-gamma response to R9F peptide (splenocytes); test: IFN-gamma ELISPOT immunogenicity of DPX vaccine (Example 14); format: in vivo, mouse (C57BL6); conditions: R9F+F21E in DPX with 5 micrograms lipid A mimic, FIG. 8; for enhancement of antigen-specific IFN-gamma response to R9F: s.c., spleens eight days after vaccination
Description: as §4
The peptides used in this example were synthesized by Polypeptide Group (San Diego, Calif., USA). Vaccines contained the MHC class I epitope HPV16E7 (H-2Db) 49-67 (RAHYNIVTF, R9F; […]; SEQ ID NO: 23).
as §7, with “R9F and F21E peptide antigens were” for “FP antigen was”, “sulfoxide” for “sulfoxide, although a water suspension of FP can also be used,”
To test the immunogenicity of the vaccine, naïve mice (n=5) were immunized subcutaneously with 50 microlitres of DPX vaccine containing R9F and F21E with no lipid A mimic (Group 1), 5 micrograms of JL-265 (Group 2) or 5 micrograms of JL-266 (Group 3). Mice in Group 4 (n=2) were not immunized and served as the naïve control. Eight days after vaccination, mice in all groups were terminated and spleens collected. A single cell suspension of splenocytes was prepared at a concentration of 5×10E6 cells per milliliter and 100 microlitres added to wells of a 96-well ELISPOT plate pre-coated with anti-IFN-gamma (BD Bioscience). In duplicate, 100 microlitres of media containing 20 micrograms per milliliter of an irrelevant peptide antigen or R9F was added to the splenocytes, or media containing no peptide as a background control. The plate was incubated overnight at 37° C. and developed next day following manufacturers instructions using AEC chromogen (Sigma-Aldrich). Spots were quantified using ELISPOT plate reader (C.T.L., Shaker Heights).

Compound	expression of CD40 and CD86 on CD11c positive dendritic cells, versus wild-type [1]	induction of CD40 and CD86 relative to LPS [1]	tumor volume fold smaller than control DepoVax composition (Group 1) [2]	Tumor Volume (mm^3) [2]	tumor volumes compared to control groups [2]	expression of CD40 and CD86 on CD11c positive dendritic cells [3]	induction of CD40 and CD86 relative to LPS [3]	tumor volumes compared to control groups [4]	Tumor Volume (mm^3) [5]	tumor volumes compared to control groups [5]	enhancement of antigen-specific IFN-gamma response to R9F ([6]; versus no lipid A mimic)	generation of an immune response (IFN-gamma ELISPOT) [6]	increase in the immune response (IFN-gamma ELISPOT) ([6]; versus no lipid A mimic)	expression of CD40 and CD86 on CD11c positive dendritic cells, versus wild-type ([1]; listed as polyI:C)
CCCCCCCCCCCCCC(=O)O[C@H](CCCCCCCCCCC)CC(=O)NC1C(OC(=O)C[C@@H](CCCCCCCCCCC)OC(=O)CCCCCCCCCCCCC)[C@H](OP(=O)(O)O)C(CO)O[C@H]1OCCN(C(=O)C[C@@H](CCCCCCCCCCC)OC(=O)CCCCCCCCCCCCC)c1cccc(O)c1 (stereo in doubt) [JL-265]	significantly reduced	slightly lower induction	about 3.1 fold	445 ± 395 mm^3	significantly smaller tumor volumes	strong increased expression	the same as LPS	significantly smaller tumor volumes	319 ± 122 mm^3	significantly smaller tumor volumes	did not enhance	capable of generating an immune response	–	–
CCCCCCCCCCCCCC(=O)O[C@H](CCCCCCCCCCC)CC(=O)NC1C(OC(=O)C[C@@H](CCCCCCCCCCC)OC(=O)CCCCCCCCCCCCC)[C@H](OP(=O)(O)O)C(CO)O[C@H]1OCCN(C(=O)C[C@@H](CCCCCCCCCCC)OC(=O)CCCCCCCCCCCCC)c1cccc(OP(=O)(O)O)c1 (stereo in doubt) [JL-266]	significantly reduced	slightly lower induction	~6.3 fold	219 ± 139 mm^3	significantly smaller tumor volumes	strong increased expression	the same as LPS	significantly smaller tumor volumes	380 ± 86 mm^3	significantly smaller tumor volumes	did	–	~2 fold	–
lipopolysaccharide [LPS, reference compound]	significantly reduced	–	–	–	–	increase in expression	–	–	–	–	–	–	–	–
poly I:C [reference compound]	comparably to wild-type dendritic cells	–	–	–	–	increase in expression	–	–	–	–	–	–	–	comparable stimulation
